Molecular target: Recombinant human ULK1 (1-649) (Homo sapiens (Human), UniProt O75385)
Test: ULK1 ADP Glo kinase activity assay (MBP substrate)
Details: 25° C., 40 minutes, read-out: ULK1 biochemical IC50
Procedure, shortened: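 GST-tagged ULK1 (1-649) from Sf9 cells phosphorylated MBP, with ATP, for 40 min at 25 °C across a 12-point series from 10 uM. ADP formed was quantified by ADP-Glo luminescence against DMSO controls. IC50 came from a four-parameter variable-slope fit of log concentration.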

Sequence of Recombinant human ULK1 (1-649) (O75385 1-649): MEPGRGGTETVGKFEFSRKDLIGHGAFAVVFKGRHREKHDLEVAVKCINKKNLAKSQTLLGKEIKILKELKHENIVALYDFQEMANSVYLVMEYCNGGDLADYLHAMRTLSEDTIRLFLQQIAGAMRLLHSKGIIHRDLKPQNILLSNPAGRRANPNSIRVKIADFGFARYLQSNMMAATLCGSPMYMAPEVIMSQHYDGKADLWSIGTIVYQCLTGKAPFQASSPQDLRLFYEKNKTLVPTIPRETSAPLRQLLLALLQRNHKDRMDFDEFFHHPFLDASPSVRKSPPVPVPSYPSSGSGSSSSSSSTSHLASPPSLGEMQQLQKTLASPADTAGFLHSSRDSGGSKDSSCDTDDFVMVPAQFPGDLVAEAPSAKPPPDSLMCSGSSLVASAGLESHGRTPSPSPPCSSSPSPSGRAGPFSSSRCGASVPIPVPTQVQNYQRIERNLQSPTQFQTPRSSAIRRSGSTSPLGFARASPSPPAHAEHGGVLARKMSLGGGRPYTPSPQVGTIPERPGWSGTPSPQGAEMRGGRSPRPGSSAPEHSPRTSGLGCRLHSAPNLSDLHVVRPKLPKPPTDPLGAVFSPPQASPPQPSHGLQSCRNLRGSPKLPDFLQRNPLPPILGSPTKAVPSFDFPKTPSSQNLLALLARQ

Row | Compound | IC50 [nM]
1 | CN1CCc2cc(Nc3ncc(C(F)(F)F)c(-c4cc(S(C)(=O)=O)c(C(N)=O)s4)n3)c(Cl)cc2C1 [Example 63, 5-(2-((7-Chloro-2-methyl-1,2,3,4-tetrahydroisoquinolin-6-yl)amino)-5-(trifluoromethyl)pyrimidin-4-yl)-3-(methylsulfonyl)thiophene-2-carboxamide] | ≤ 10
2 | O=S1(=O)CCNCc2sc(-c3nc(Nc4cc5c(cc4Cl)CNCC5)ncc3C(F)(F)F)cc21 [Example 64, 7-(2-((7-chloro-1,2,3,4-tetrahydroisoquinolin-6-yl)amino)-5-(trifluoromethyl)pyrimidin-4-yl)-2,3,4,5-tetrahydrothieno[2,3-f][1,4]thiazepine 1,1-dioxide] | ≤ 10
3 | COCCOc1sc(-c2nc(Nc3cc4c(cc3Cl)CN(C)CC4)ncc2C(F)(F)F)cc1C(N)=O [Example 66, 5-(2-((7-chloro-2-methyl-1,2,3,4-tetrahydroisoquinolin-6-yl)amino)-5-(trifluoromethyl)pyrimidin-4-yl)-2-(2-methoxyethoxy)thiophene-3-carboxamide] | ≤ 10
4 | CN1CCc2cc(Nc3ncc(C(F)(F)F)c(-c4cc(S(C)(=O)=O)c(CN5CCOCC5)s4)n3)c(Cl)cc2C1 [Example 67, 7-chloro-2-methyl-N-(4-(4-(methylsulfonyl)-5-(morpholinomethyl)thiophen-2-yl)-5-(trifluoromethyl)pyrimidin-2-yl)-1,2,3,4-tetrahydroisoquinolin-6-amine] | 10 to 50
5 | CSc1cc2c(cc1Nc1ncc(C(F)(F)F)c(-c3cc(S(C)(=O)=O)cs3)n1)CCN(C)C2 [Example 68, 2-methyl-N-(4-(4-(methylsulfonyl)thiophen-2-yl)-5-(trifluoromethyl)pyrimidin-2-yl)-7-(methylthio)-1,2,3,4-tetrahydroisoquinolin-6-amine] | ≤ 10
6 | CN1CCc2cc(Nc3ncc(C(F)(F)F)c(-c4cc5c(s4)CNCCS5(=O)=O)n3)c(Cl)cc2C1 [Example 69, 7-(2-((7-chloro-2-methyl-1,2,3,4-tetrahydroisoquinolin-6-yl)amino)-5-(trifluoromethyl)pyrimidin-4-yl)-2,3,4,5-tetrahydrothieno[2,3-f][1,4]thiazepine 1,1-dioxide] | ≤ 10
7 | O=C1NCCOc2sc(-c3nc(Nc4cc5c(cc4Cl)CNCC5)ncc3C(F)(F)F)cc21 [Example 71, 7-(2-((7-chloro-1,2,3,4-tetrahydroisoquinolin-6-yl)amino)-5-(trifluoromethyl)pyrimidin-4-yl)-3,4-dihydrothieno[3,2-f][1,4]oxazepin-5(2H)-one] | ≤ 10
8 | CCc1cc2c(cc1Nc1ncc(C(F)(F)F)c(-c3cc(S(C)(=O)=O)cs3)n1)CNC2 [Example 72, 6-ethyl-N-(4-(4-(methylsulfonyl)thiophen-2-yl)-5-(trifluoromethyl)pyrimidin-2-yl)isoindolin-5-amine] | ≤ 10
9 | CS(=O)(=O)c1csc(-c2nc(Nc3cc4c(cc3Cl)CNC4)ncc2C(F)(F)F)c1 [Example 73, 6-chloro-N-(4-(4-(methylsulfonyl)thiophen-2-yl)-5-(trifluoromethyl)pyrimidin-2-yl)isoindolin-5-amine] | ≤ 10
10 | CS(=O)(=O)c1cc(-c2nc(Nc3cc4c(cc3Cl)CNCC4)ncc2C(F)(F)F)sc1C1=CCOCC1 [Example 75, 7-chloro-N-(4-(5-(3,6-dihydro-2H-pyran-4-yl)-4-(methylsulfonyl)thiophen-2-yl)-5-(trifluoromethyl)pyrimidin-2-yl)-1,2,3,4-tetrahydroisoquinolin-6-amine] | ≤ 10
11 | CCc1cc2c(cc1Nc1ncc(C(F)(F)F)c(-c3cc(S(C)(=O)=O)cs3)n1)CN(C)C2 [Example 76, 6-ethyl-2-methyl-N-(4-(4-(methylsulfonyl)thiophen-2-yl)-5-(trifluoromethyl)pyrimidin-2-yl)isoindolin-5-amine] | 10 to 50
12 | CS(=O)(=O)c1cc(-c2nc(Nc3cc4c(cc3Cl)CNCC4)ncc2C(F)(F)F)sc1C1=CCS(=O)(=O)CC1 [Example 78, 4-(5-(2-((7-chloro-1,2,3,4-tetrahydroisoquinolin-6-yl)amino)-5-(trifluoromethyl)pyrimidin-4-yl)-3-(methylsulfonyl)thiophen-2-yl)-3,6-dihydro-2H-thiopyran 1,1-dioxide] | ≤ 10
13 | Cc1c(S(C)(=O)=O)csc1-c1nc(Nc2cc3c(cc2Cl)CNCC3)ncc1C(F)(F)F [Example 79, 7-chloro-N-(4-(3-methyl-4-(methylsulfonyl)thiophen-2-yl)-5-(trifluoromethyl)pyrimidin-2-yl)-1,2,3,4-tetrahydroisoquinolin-6-amine] | 100 to 500
14 | CN1Cc2cc(F)c(Nc3ncc(C(F)(F)F)c(-c4cc(S(C)(=O)=O)cs4)n3)cc2C1 [Example 80, 6-fluoro-N-[4-(4-methanesulfonylthiophen-2-yl)-5-(trifluoromethyl)pyrimidin-2-yl]-2-methyl-2,3-dihydro-1H-isoindol-5-amine] | ≤ 10
15 | O=C1NCCS(=O)(=O)c2cc(-c3nc(Nc4cc5c(cc4Cl)CNCC5)ncc3C(F)(F)F)sc21 [Example 82, 7-[2-[(7-chloro-1,2,3,4-tetrahydroisoquinolin-6-yl)amino]-5-(trifluoromethyl)pyrimidin-4-yl]-1,1-dioxo-3,4-dihydro-2H-thieno[2,3-f][1,4]thiazepin-5-one] | ≤ 10
16 | CS(=O)(=O)c1cc(-c2nc(Nc3cc4c(cc3Cl)CNCC4)ncc2C(F)(F)F)sc1N1CCOCC1 [Example 83, 7-Chloro-N-[4-(4-methylsulfonyl-5-morpholino-2-thienyl)-5-(trifluoromethyl)pyrimidin-2-yl]-1,2,3,4-tetrahydroisoquinolin-6-amine] | ≤ 10
17 | O=S1(=O)NCCCc2sc(-c3nc(Nc4cc5c(cc4Cl)CNCC5)ncc3C(F)(F)F)cc21 [Example 84, 7-(2-((7-chloro-1,2,3,4-tetrahydroisoquinolin-6-yl)amino)-5-(trifluoromethyl)pyrimidin-4-yl)-2,3,4,5-tetrahydrothieno[2,3-f][1,2]thiazepine 1,1-dioxide] | ≤ 10
18 | O=S1(=O)NCCOc2sc(-c3nc(Nc4cc5c(cc4Cl)CNCC5)ncc3C(F)(F)F)cc21 [Example 85, 7-chloro-N-[4-(1,1-dioxo-3,4-dihydro-2H-thieno[2,3-b][1,4,5]oxathiazepin-7-yl)-5-(trifluoromethyl)pyrimidin-2-yl]-1,2,3,4-tetrahydroisoquinolin-6-amine] | ≤ 10
19 | CN1CCc2cc(Nc3ncc(C(F)(F)F)c(-c4cc5c(s4)C(=O)NCCS5(=O)=O)n3)c(Cl)cc2C1 [Example 86, 7-(2-((7-chloro-2-methyl-1,2,3,4-tetrahydroisoquinolin-6-yl)amino)-5 (trifluoromethyl)pyrimidin-4-yl)-3,4-dihydrothieno[2,3-f][1,4]thiazepin-5(2H)-one 1,1-dioxide] | ≤ 10
20 | CN1CCc2cc(Nc3ncc(C(F)(F)F)c(-c4cc(S(C)(=O)=O)c(C5CCOCC5)s4)n3)c(Cl)cc2C1 [Example 87, 7-chloro-2-methyl-N-(4-(4-(methylsulfonyl)-5-(tetrahydro-2H-pyran-4-yl)thiophen-2-yl)-5-(trifluoromethyl)pyrimidin-2-yl)-1,2,3,4-tetrahydroisoquinolin-6-amine] | ≤ 10
21 | CN1Cc2cc(Nc3ncc(C(F)(F)F)c(-c4cc(S(C)(=O)=O)cs4)n3)c(C3CC3)cc2C1 [Example 88, 6-cyclopropyl-N-[4-(4-methanesulfonylthiophen-2-yl)-5-(trifluoromethyl)pyrimidin-2-yl]-2-methyl-2,3-dihydro-1H-isoindol-5-amine] | ≤ 10
22 | CS(=O)(=O)c1csc(-c2nc(Nc3cc4c(cc3Cl)CNCC4)ncc2C2CC2)c1 [Example 89, 7-chloro-N-(5-cyclopropyl-4-(4-(methylsulfonyl)thiophen-2-yl)pyrimidin-2-yl)-1,2,3,4-tetrahydroisoquinolin-6-amine] | 10 to 50
23 | CS(=O)(=O)c1cc(-c2nc(Nc3cc4c(cc3Cl)CNCC4)ncc2C(F)(F)F)sc1N1CCS(=O)(=O)CC1 [Example 90, 4-(5-(2-((7-chloro-1,2,3,4-tetrahydroisoquinolin-6-yl)amino)-5-(trifluoromethyl)pyrimidin-4-yl)-3-(methylsulfonyl)thiophen-2-yl)thiomorpholine 1,1-dioxide] | ≤ 10
24 | CS(=O)(=O)c1csc(-c2nc(Nc3cc4c(cc3F)CNCC4)ncc2C(F)(F)F)c1 [Example 91, 7-fluoro-N-(4-(4-(methylsulfonyl)thiophen-2-yl)-5-(trifluoromethyl)pyrimidin-2-yl)-1,2,3,4-tetrahydroisoquinolin-6-amine] | ≤ 10
25 | Cc1cc2c(cc1Nc1ncc(C(F)(F)F)c(-c3cc(S(C)(=O)=O)cs3)n1)CN(C)C2 [Example 92, 2,6-dimethyl-N-(4-(4-(methylsulfonyl)thiophen-2-yl)-5-(trifluoromethyl)pyrimidin-2-yl)isoindolin-5-amine] | ≤ 10
26 | CS(=O)(=O)c1csc(-c2nc(Nc3cc4c(cc3Cl)CNCC4)ncc2Cl)c1 [Example 93, 7-chloro-N-(5-chloro-4-(4-(methylsulfonyl)thiophen-2-yl)pyrimidin-2-yl)-1,2,3,4-tetrahydroisoquinolin-6-amine] | ≤ 10
27 | Cc1cnc(Nc2cc3c(cc2Cl)CNCC3)nc1-c1cc(S(C)(=O)=O)cs1 [Example 94, 7-chloro-N-(5-methyl-4-(4-(methylsulfonyl)thiophen-2-yl)pyrimidin-2-yl)-1,2,3,4-tetrahydroisoquinolin-6-amine] | ≤ 10
28 | CN1CCc2cc(Nc3ncc(C(F)(F)F)c(-c4cc(S(C)(=O)=O)cs4)n3)c(Cl)cc2C1 [Example 95, 7-chloro-2-methyl-N-(4-(4-(methylsulfonyl)thiophen-2-yl)-5-(trifluoromethyl)pyrimidin-2-yl)-1,2,3,4-tetrahydroisoquinolin-6-amine] | ≤ 10
29 | COCc1sc(-c2nc(Nc3cc4c(cc3Cl)CNCC4)ncc2C(F)(F)F)cc1S(C)(=O)=O [Example 96, 7-chloro-N-(4-(5-(methoxymethyl)-4-(methylsulfonyl)thiophen-2-yl)-5-(trifluoromethyl)pyrimidin-2-yl)-1,2,3,4-tetrahydroisoquinolin-6-amine] | 10 to 50

From patent publication US20250144094A1 (Erasca, Inc., priority 2021, published 2025)
